Calls of active or inactive are those of the source. No cut-off for these calls is given here.

Assay [1] concerns the target Histone acetyltransferase KAT2B (Homo sapiens) (UniProt Q92831). Kind of assay: Inhibition of recombinant human KAT2B (492 to 658 residues) using histone H3 peptide and [3H]-acetyl-coA as substrates at 200 uM incubated for 1 hrs by liquid scintillation counter analysis.
Assay [2] has as its target T1, Histone acetyltransferase KAT8 (Homo sapiens) (UniProt Q9H7Z6).
T1 sequence (whole entry): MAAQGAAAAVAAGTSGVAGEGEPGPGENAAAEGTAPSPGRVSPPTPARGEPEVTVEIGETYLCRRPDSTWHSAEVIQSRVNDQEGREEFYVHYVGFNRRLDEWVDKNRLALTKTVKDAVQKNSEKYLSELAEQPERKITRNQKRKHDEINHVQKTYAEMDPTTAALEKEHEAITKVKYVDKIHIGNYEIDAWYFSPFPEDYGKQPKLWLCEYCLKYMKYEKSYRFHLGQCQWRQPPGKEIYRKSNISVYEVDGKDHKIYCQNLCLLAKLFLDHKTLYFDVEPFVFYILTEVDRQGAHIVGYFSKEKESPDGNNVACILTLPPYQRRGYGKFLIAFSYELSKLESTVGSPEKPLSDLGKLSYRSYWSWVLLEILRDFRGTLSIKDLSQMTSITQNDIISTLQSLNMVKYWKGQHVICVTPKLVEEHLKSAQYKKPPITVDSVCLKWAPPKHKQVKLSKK
Kind of assay: Inhibition of N-terminal 6His tagged KAT8 (173 to 458 residues) (unknown origin) expressed in Escherichia coli BL21(DE3) using biotinylated histone H4 peptide and [3H]Acetyl-CoA as substrates at 200 uM preincubated for 20 mins followed by substrate addition and measured after 4 hrs by MicroBeta microplate counter analysis. The following applies: time 260.0 min.

Assay [3] addresses Histone acetyltransferase p300 (Homo sapiens) (UniProt Q09472). The assay is described as follows: Inhibition of recombinant human KAT3B (1287 to 1673 residues) using histone H3 peptide and [3H]-acetyl-coA as substrates at 200 uM incubated for 1 hrs by liquid scintillation counter analysis.
Assay [4] can be described thus: Inhibition of human recombinant KDAC8.
Assay [5] is filed under the species Homo sapiens. Kind of assay: Inhibition of human recombinant KDAC1 using Boc-Lys-(Ac)-AMC as substrate at 50 to 100 uM incubated for 45 mins by fluorescence microplate reader analysis. To be noted: dose 50-100 µM.
The target in assay [6] is Histone deacetylase 2 (Homo sapiens) (UniProt Q92769). The assay is described as follows: Inhibition of human recombinant KDAC2 using Boc-Lys-(Ac)-AMC as substrate at 50 to 100 uM incubated for 45 mins by fluorescence microplate reader analysis. To be noted: dose 50-100 µM.
Assay [7] addresses Histone deacetylase 3 (Homo sapiens) (UniProt O15379). Kind of assay: Inhibition of human recombinant KDAC3 using Boc-Lys-(Ac)-AMC as substrate at 50 to 100 uM incubated for 45 mins by fluorescence microplate reader analysis. The following applies: dose 50-100 µM.
Assay [8] deals with T2, Protein deacetylase HDAC6 (Homo sapiens) (UniProt Q9UBN7).
T2 sequence (whole entry): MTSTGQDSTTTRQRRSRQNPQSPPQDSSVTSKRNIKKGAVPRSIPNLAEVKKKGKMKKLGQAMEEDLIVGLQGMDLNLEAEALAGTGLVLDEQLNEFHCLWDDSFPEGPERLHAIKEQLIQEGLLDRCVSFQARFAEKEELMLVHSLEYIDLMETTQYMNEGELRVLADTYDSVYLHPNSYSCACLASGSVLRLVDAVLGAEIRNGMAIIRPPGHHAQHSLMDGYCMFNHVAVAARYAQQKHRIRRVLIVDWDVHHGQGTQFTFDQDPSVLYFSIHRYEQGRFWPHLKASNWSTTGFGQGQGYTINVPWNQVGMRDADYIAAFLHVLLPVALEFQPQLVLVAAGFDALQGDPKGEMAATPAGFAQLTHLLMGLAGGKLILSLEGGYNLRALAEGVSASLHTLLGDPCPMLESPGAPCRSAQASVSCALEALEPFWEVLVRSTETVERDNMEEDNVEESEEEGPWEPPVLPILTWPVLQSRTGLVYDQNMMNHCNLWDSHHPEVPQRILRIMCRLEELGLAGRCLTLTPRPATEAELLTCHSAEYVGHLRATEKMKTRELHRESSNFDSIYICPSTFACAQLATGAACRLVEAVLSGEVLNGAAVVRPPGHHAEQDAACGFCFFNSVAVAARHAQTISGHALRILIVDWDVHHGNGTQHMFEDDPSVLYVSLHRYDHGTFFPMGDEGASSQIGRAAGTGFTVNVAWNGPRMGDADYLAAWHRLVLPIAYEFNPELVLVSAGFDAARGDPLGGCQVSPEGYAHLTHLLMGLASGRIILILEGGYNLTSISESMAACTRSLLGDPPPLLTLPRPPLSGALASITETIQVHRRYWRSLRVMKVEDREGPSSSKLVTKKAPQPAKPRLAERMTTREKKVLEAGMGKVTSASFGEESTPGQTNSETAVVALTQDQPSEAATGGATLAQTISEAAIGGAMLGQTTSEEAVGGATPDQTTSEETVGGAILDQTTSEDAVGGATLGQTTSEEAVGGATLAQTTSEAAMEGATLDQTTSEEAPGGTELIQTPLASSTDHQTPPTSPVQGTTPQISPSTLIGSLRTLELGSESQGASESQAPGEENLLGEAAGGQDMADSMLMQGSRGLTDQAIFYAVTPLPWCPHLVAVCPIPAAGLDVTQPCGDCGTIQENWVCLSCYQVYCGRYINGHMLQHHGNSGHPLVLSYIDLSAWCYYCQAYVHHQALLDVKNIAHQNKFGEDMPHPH
The assay is described as follows: Inhibition of human recombinant KDAC6 using Boc-Lys-(Ac)-AMC as substrate at 50 to 100 uM incubated for 45 mins by fluorescence microplate reader analysis. To be noted: dose 50-100 µM.

The species named for assay [9] is Homo sapiens. Kind of assay: Inhibition of human recombinant KDAC8 using Boc-Lys-(Ac)-AMC as substrate at 50 to 100 uM incubated for 45 mins by fluorescence microplate reader analysis. The following applies: dose 50-100 µM.

Histone acetyltransferase p300 (Homo sapiens), sequence (Q09472 whole entry, the tested form may be a part): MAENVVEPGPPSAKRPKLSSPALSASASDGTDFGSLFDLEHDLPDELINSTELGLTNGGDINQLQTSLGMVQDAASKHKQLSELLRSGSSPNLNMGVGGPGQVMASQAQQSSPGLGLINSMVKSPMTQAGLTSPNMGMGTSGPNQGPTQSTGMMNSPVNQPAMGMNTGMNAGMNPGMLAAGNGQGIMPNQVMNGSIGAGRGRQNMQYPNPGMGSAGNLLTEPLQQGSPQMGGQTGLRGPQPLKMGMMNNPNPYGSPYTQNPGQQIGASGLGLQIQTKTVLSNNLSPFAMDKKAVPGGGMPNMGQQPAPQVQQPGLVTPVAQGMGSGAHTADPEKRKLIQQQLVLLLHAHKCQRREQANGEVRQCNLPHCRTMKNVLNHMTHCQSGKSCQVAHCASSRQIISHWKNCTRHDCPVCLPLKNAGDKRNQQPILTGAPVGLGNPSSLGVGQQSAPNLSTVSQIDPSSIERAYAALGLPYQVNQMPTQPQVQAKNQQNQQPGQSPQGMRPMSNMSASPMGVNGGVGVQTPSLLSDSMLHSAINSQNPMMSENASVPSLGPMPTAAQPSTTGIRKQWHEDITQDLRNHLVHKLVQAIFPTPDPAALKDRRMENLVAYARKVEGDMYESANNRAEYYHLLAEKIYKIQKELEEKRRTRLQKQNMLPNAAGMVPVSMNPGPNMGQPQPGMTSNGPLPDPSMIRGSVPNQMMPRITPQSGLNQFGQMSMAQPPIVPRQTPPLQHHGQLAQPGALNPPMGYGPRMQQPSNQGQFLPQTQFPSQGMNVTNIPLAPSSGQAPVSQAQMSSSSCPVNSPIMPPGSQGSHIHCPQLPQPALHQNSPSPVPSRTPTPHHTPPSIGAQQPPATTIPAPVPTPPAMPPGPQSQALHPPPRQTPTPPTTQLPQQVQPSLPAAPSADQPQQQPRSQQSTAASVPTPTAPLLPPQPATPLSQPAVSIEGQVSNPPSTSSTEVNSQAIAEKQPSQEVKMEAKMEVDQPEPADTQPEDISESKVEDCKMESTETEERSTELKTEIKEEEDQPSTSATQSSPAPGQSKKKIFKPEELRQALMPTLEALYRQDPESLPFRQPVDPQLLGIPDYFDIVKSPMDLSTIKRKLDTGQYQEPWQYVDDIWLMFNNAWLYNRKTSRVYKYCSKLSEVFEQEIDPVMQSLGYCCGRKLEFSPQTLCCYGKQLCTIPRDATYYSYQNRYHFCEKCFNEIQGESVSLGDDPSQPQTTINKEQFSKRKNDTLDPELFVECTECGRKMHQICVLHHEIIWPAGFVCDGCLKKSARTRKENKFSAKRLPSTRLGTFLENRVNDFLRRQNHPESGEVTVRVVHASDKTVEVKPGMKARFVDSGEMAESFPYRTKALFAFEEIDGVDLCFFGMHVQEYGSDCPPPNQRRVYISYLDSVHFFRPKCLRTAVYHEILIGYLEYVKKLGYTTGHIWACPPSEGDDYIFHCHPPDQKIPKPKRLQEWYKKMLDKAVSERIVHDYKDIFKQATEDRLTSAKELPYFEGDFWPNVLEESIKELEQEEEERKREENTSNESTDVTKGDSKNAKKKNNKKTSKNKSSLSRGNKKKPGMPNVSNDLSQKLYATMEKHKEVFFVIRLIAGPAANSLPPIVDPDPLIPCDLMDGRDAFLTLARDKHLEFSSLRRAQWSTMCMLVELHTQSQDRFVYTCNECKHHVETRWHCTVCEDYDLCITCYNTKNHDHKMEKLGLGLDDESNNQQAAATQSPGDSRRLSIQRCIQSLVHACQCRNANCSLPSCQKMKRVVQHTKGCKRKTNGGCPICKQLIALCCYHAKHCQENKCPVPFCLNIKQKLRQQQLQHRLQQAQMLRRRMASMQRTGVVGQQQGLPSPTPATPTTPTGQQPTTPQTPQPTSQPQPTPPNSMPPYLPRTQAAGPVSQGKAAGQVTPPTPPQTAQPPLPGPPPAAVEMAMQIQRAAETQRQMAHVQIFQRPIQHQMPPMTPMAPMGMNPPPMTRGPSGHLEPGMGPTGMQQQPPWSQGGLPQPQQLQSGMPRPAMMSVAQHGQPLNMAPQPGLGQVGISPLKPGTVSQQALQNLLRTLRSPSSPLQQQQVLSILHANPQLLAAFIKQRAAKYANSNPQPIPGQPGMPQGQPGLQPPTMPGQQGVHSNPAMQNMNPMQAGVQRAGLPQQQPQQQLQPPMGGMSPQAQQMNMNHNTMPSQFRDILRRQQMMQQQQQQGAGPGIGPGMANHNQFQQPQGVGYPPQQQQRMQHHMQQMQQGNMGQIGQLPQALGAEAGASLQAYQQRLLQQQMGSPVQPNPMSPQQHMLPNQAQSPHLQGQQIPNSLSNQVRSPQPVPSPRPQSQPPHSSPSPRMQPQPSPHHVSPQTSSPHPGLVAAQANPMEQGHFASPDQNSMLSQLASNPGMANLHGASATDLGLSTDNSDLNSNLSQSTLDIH
Histone acetyltransferase KAT2B (Homo sapiens), sequence (Q92831 whole entry, looked up, the tested form may be a part): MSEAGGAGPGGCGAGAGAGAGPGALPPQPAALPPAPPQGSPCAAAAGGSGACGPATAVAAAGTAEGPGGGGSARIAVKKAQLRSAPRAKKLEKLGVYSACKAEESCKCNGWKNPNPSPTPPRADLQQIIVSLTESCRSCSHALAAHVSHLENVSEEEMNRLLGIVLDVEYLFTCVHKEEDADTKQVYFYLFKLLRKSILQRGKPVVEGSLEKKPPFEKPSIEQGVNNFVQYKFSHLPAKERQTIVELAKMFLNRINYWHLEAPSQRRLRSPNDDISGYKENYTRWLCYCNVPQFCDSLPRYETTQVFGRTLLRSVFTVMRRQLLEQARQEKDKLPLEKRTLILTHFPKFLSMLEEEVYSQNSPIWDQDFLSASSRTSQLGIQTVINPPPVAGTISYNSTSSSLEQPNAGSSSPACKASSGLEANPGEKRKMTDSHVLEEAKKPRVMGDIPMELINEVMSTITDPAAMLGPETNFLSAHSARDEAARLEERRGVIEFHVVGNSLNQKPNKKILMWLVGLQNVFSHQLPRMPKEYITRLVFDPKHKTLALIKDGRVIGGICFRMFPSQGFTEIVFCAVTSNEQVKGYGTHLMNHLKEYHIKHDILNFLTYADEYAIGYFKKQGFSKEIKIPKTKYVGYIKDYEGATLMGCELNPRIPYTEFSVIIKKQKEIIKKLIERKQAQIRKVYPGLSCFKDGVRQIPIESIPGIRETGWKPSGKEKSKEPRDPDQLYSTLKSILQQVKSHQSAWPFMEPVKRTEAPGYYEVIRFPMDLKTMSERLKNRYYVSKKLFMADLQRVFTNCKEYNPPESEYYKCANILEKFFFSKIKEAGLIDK
Histone deacetylase 2 (Homo sapiens), sequence (Q92769 whole entry): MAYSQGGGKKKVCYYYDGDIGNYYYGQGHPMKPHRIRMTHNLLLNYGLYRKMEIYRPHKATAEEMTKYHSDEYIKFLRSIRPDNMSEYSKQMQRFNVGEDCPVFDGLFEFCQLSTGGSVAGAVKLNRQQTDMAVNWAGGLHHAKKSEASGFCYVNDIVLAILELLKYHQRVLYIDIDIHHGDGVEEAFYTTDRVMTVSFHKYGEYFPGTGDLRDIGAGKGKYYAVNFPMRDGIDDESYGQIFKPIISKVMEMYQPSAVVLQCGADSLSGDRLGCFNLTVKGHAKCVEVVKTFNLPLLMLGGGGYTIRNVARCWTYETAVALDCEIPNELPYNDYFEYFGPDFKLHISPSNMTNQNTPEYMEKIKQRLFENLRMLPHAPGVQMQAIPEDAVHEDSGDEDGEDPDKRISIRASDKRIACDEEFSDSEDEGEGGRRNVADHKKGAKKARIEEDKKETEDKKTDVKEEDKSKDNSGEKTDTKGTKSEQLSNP
Histone deacetylase 3 (Homo sapiens), sequence (O15379 whole entry): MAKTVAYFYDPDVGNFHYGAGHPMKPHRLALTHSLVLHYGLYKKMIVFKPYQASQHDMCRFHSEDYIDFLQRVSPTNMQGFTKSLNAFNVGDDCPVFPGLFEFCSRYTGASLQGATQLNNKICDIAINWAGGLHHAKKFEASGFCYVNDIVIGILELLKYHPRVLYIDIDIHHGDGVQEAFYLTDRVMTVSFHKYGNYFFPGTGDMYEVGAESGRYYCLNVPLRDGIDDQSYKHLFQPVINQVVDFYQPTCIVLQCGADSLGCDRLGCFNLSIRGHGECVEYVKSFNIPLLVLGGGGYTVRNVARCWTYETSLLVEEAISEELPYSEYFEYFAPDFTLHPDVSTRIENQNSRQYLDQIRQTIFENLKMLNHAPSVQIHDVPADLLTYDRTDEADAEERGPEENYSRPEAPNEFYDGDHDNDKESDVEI

Turning to `CC1=NN(c2ccc(C(=O)O)cc2)C(=O)/C1=C\c1cc(C(=O)c2ccccc2C)c[nH]1`, the inhibition entry in assay [1] was “inactive”.

For the compound `CC1=NN(c2ccc(C(=O)O)cc2)C(=O)/C1=C\c1cccn1-c1ccccc1`, in [1], the inhibition entry is “inactive”.

Turning to `CC1=NN(c2ccc(C(=O)NCc3ccccc3)cc2)C(=O)/C1=C\c1ccc[nH]1`, the inhibition result in [2], in assay [3] and in assay [1] was “inactive” throughout.

With `Cc1nn(-c2ccc(C(=O)O)cc2)c(O)c1Cc1ccc[nH]1`, the inhibition entry in assay [3] and in assay [1] was “inactive” each time.

On to `CC1=NN(c2ccc(C(=O)O)cc2)C(=O)C1`, for which the inhibition result in assay [2] is “inactive”.

For the compound `CC1=NN(c2ccc(C(N)=O)cc2)C(=O)/C1=C\c1ccc[nH]1`, the inhibition result in assay [3] and in assay [1] was “inactive” each time.

On to `CC1=NN(c2ccc(C(=O)O)cc2)C(=O)/C1=C\c1c[nH]c2ccccc12`, for which the inhibition entry in assay [1] was “inactive”.

On to `CC1=NN(c2ccc(C(=O)O)cc2)C(=O)/C1=C\c1cc(C(=O)c2ccccc2[N+](=O)[O-])c[nH]1`, for which the inhibition result in [1] was “inactive”.

Take `Cc1nn(-c2ccc(C(=O)O)cc2)c(O)c1Cc1ccccc1`: the inhibition result in assay [3] and in assay [1] was “inactive” each time.

Regarding `CC1=NN(c2cccc(C(=O)O)c2)C(=O)/C1=C\c1ccc[nH]1`, the inhibition result in [3] and in assay [1] was “inactive” throughout.

In the case of `CC1=NN(c2ccc(C(=O)O)cc2)C(=O)/C1=C(/C)c1ccc[nH]1`, the inhibition entry in assay [3] and in assay [1] was “inactive” throughout.

`CC1=NN(c2ccc(C(=O)O)cc2)C(=O)C1=Cc1ccco1` (mixture of isomers): the inhibition entry in assay [1] is “inactive”.

Turning to `O=C(O)c1ccc(N2N=C(Cc3ccccc3)/C(=C/c3ccc[nH]3)C2=O)cc1`, the inhibition result in [3] and in assay [1] was “inactive” throughout.

As for `CC1=NN(c2ccc(C(=O)O)cc2)C(=O)/C1=C\c1cccn1C`, the inhibition entry in [1] is “inactive”.

For the compound `CC1=NN(c2ccc(C(=O)O)cc2)C(=O)/C1=C\c1cc2ccccc2[nH]1`, the inhibition result in [1] was “inactive”.

With `CC1=NN(c2ccc(C(=O)O)cc2)C(=O)/C1=C\c1cc(C(=O)c2ccccc2O)c[nH]1`, the inhibition result in assay [2] is “inactive”.

Take `CC1=NN(c2ccc(C(=O)O)cc2)C(=O)/C1=C\c1cc(C(=O)c2ccc([N+](=O)[O-])cc2)c[nH]1`: the inhibition result in assay [2] is “inactive”.

Regarding `CC1=NN(c2ccc(C(=O)O)cc2)C(=O)/C1=C\c1ccccc1`, the inhibition entry in assay [3] and in [1] was “inactive” each time.

`CCCCCCCc1ccc(CCc2cccc(O)c2C(=O)O)cc1`: the inhibition entry in [1] is “inactive”.

`CC1=NN(c2ccc(C(=O)O)cc2)C(=O)/C1=C\c1cc(C(=O)c2ccccc2Cl)c[nH]1`: the inhibition result in assay [1] is “inactive”.

For orientation: IC50 means the concentration that gives 50% inhibition. Consider `CC1=NN(c2ccc(C(=O)O)cc2)C(=O)/C1=C\c1ccc(-c2cc(C)c(C)cc2[N+](=O)[O-])o1`, for which the IC50 in assay [4] came to 7 µM. Further, the inhibition result in assay [2] and in assay [1] was “inactive” each time. Moreover, the inhibition result in [5], in assay [6], in [7], in assay [8] and in assay [9] was “Active” each time.

Regarding `CC(C)C1=NN(c2ccc(C(=O)O)cc2)C(=O)/C1=C\c1ccc[nH]1`, the inhibition entry in assay [3] and in [1] was “inactive” throughout.

Turning to `CC1=NN(c2ccc(C(=O)O)cc2)C(=O)/C1=C\c1c[nH]cn1`, in assay [1], the inhibition result was “inactive”.

As to `CC1=NN(c2ccccc2)C(=O)/C1=C\c1cc(C(=O)c2ccccc2)c[nH]1`, the inhibition entry in assay [2] was “inactive”.

As for `CC1=NN(c2ccc(C(=O)O)cc2)C(=O)/C1=C\c1cc(C(=O)c2ccc(Cl)cc2)c[nH]1`, the inhibition result in assay [2] is “inactive”.

For `CC1=NN(c2ccc(C(=O)O)cc2)C(=O)/C1=C\c1ccn[nH]1`, the inhibition result in assay [3] and in assay [1] was “inactive” throughout.

Turning to `CC1=NN(c2ccc(C(=O)N(C)C)cc2)C(=O)/C1=C\c1ccc[nH]1`, the inhibition entry in assay [3] and in assay [1] was “inactive” each time.

With `CC1=NN(c2ccccc2)C(=O)/C1=C\c1cc(C(=O)c2ccccc2[N+](=O)[O-])c[nH]1`, in assay [2], the inhibition entry was “inactive”.

For `CC1=NN(c2ccc(C(=O)O)cc2)C(=O)/C1=C\c1cccs1`, in assay [1], the inhibition entry is “inactive”.

For `CC1=NN(c2ccc(C(=O)NCCCN3CCCC3)cc2)C(=O)/C1=C\c1ccc[nH]1`, in assay [2], the inhibition entry is “inactive”.

For `CC1=NN(c2ccc(C(=O)O)cc2)C(=O)/C1=C\c1cc[nH]c1`, the inhibition result in [3] and in [1] was “inactive” in each case.

For `CC1=NN(c2ccc(C(=O)O)cc2)C(=O)/C1=C\c1cc(C(=O)c2ccccc2)c[nH]1`, the inhibition entry in assay [1] was “inactive”.

For the origin of these results see ChEMBL document CHEMBL5338773, “First-in-Class Selective Inhibitors of the Lysine Acetyltransferase KAT8” (J Med Chem, 2023).
